Experimental data as given in patent US6489356B2, “Method for treating pain in humans” (priority 2000, dated 2002).
Entries after “also recorded” stand apart in the source; their conditions may differ. Where two headings read alike, the source gives them in different places. Values belong to the molecule of their own block, whether it stands above or below them.

What was measured:
[1] = tested on: carrageenan-induced hyperalgesia in rats; test: carrageenan paw model of inflammatory pain, Hargreaves thermal withdrawal; type: in vivo, rat
Experimental: Compound T62 was tested for its efficacy in treating inflammatory pain by use of the carrageenan paw model. Carrageenan is a water-extractable polysaccharide obtained from seaweeds. […] Carrageenan-induced hyperalgesia is believed to occur as a consequence of sensitization of primary afferent nociceptors and neuron plasticity intrinsic to the spinal cord.
Animals were prepared with chronic lumbar intrathecal catheters. Baseline measurement of hindpaw withdrawal latency to thermal stimulation were obtained on a Hargreaves device. Animals received a single intrathecal (IT) injection of Compound T-62 ranging from 0.5 to 40 μg. Withdrawal thresholds were measured on a Hargreaves device every 30 minutes for three hours.

[2] = biological target: T1, A1 receptor in rat forebrain membranes (Rattus norvegicus, UniProt P25099); details: compound 30 in reference (5), Bruns et al.; read-out: ED50 as an enhancer; cited from earlier work
T1 construct: from tissue; host or cells: rat forebrain membranes
T1 sequence (P25099 1-326): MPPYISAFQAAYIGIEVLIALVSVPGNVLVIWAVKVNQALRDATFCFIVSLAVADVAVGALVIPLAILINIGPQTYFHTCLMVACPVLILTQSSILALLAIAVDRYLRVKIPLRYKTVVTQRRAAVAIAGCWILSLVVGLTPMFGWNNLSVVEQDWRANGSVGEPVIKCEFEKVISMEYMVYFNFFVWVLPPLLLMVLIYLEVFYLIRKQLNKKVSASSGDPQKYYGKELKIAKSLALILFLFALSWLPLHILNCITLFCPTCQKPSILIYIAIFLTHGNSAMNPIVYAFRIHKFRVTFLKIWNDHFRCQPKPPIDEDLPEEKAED

mouse = type: in vivo; details: 1024 mg/kg i.p., listed as Compound T-62
Experimental: As indicated above, Compound T62 is an effective treatment for neuropathic pain at a dose of 15 mg/kg by intraperitoneal (i.p.) injection. In addition, the safety of T62 was evaluated at 64, 128, 256, 512 and 1024 mg/kg (Table 1).

[3] = biological target: T2, human recombinant A1 adenosine receptors (Homo sapiens, UniProt P30542); test: cyclic AMP production in CHO cells expressing the A1 adenosine receptor; type: cell-based
T2 construct: expressed in transfected cells; host or cells: CHO cells (CHO: huA1)
T2 sequence (P30542 1-326): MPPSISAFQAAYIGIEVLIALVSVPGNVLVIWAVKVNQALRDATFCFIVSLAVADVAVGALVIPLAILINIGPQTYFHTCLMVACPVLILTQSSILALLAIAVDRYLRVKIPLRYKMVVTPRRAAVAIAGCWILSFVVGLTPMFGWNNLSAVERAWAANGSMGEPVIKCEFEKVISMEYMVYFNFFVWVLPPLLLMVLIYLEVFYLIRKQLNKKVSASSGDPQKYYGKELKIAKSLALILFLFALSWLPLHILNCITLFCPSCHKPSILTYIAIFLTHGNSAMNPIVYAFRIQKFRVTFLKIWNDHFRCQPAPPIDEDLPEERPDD
Experimental: Cells were removed from liquid nitrogen storage when needed, and grown in Ham's F-12 culture medium with 10% fetal bovine serum and 0.5 mg/ml of antibiotic G-418. Aliquots of cells were placed into 12-well cultured plates with culture medium, serum, and antibiotic for 48-72 hours, by which time the cells had grown to a confluent monolayer.
To begin an experiment, growth medium was removed from the culture plates and cells were washed once with Hanks' buffered saline solution. […] After 6 min of incubation at 36° C. in the presence of drugs, the incubation solution was removed and hydrochloric (final concentration, 50 mM) was added to terminate drug action.
The content of cAMP in acidified extracts of cells was determined by radioimmunoassay as previously described (12). The compounds listed in reference 7 (U.S. Pat. No. 5,939,432) relating to allosteric enhancers, were tested using this method.
Because the magnitude of the effects of allosteric enhancers on cells changed with time and batch of cells, the actions of each test compound to enhance the effect of CPA (and thus reduce cAMP content of CHO cells) were normalized to the response of cells to 10 μM PD 81,723. […] Enhancement by Compound T62 began at 10 nM. There was no antagonism of this effect even at 10 μM of Compound T62.

[4] = tested on: phenylbenzoquinone-induced writhing in mice; test: phenylbenzoquinone (PBQ) writhing test; type: in vivo, mouse
Experimental: Testing for use of Compound T62 in treatment of persistent chemical pain was performed following the phenylbenzoquinone (PBQ) writhing tests. This method detects general analgesic activity. Mice were injected with phenylbenzoquinone (PBQ) (1.25 mg/kg i.p.). […] The number of writhes was counted for 10 minutes beginning 5 minutes after injection of PBQ. 8 mice were studied for each treatment group and the test was performed blind.

[5] = tested on: mechanical hypersensitivity after spinal nerve ligation in the rat; test: spinal nerve ligation model of neuropathic pain, von Frey withdrawal threshold; type: in vivo; details: for dose returning sensitivity (withdrawal threshold) to normal: rat
From the text: Following Animal Care and Use Committee approval, mechanical hypersensitivity was generated in male Sprague-Dawley rats as described in the following paper. (Kim,S. H. and Chung, J. M., An experimental model for peripheral neuropathy produced by segmental spinal nerve ligation in the rat, Pain, 50 (1992) 355-363. Briefly, under general anesthesia with inhalational halothane, the left L5 and L6 spinal nerves were identified through a small laminotomy and tightly ligated. Approximately one week later, an intrathecal catheter was placed under general anesthesia by insertion under direct vision of a polyethylene catheter through a small slit in the dura at the cisterna magnum and advanced 8.5 cm such that the catheter tip resided in the lower lumbar intrathecal space. Animals were studied approximately one week later.
Ligation of the lumbar spinal nerves results in a primarily unilateral increase in the sensitivity to light touch on the operated side. Sensitivity was assessed via application of calibrated von Frey filaments. The withdrawal threshold was determined using an up down method as described in Chaplan, S. R., Bach, F. W., Pogrel, J. W., Chung, J. M., and Yaksh, T. L., Quantitative assessment of tactile allodynia in the rat paw, J. Neurosci. Methods, 53 (1994) 55-63.
Von Frey filaments are scientific apparatus designed to apply a pre-determined pressure to a surface. These filaments are flexible bristles with a flat tip. The applied pressure is determined by the diameter of the filament.
In these studies, the animals are placed on top of a wired cage. The goal of these studies is to determine the pressure at which the animal perceives the pressure applied as painful and lifts its foot. The scientist determines the discomfort pressure threshold by pressing the tip of von Frey filaments, one filament at a time, to the bottom of the foot through the wired cage floor. When a slight pressure is applied to the underside of the foot, the animal feels the sensation but it will not lift its foot because this sensation is not painful, or uncomfortable.
In a normal animal, the threshold for discomfort is approximately 35 g pressure. In an animal whose foot is rendered more sensitive to pressure, the withdrawal threshold is less than 4 g. That is, a pressure that is not perceived as pain in the unaltered, control foot will be perceived as a painful stimulus in the surgically altered foot.
Mechanical withdrawal threshold was determined before and at intervals after intrathecal injection of Compound T62, 1-5 μg. […] In the study, the investigator was blinded to the dose administered. Compound T62 was dissolved in cyclodextrin, which had no effect on withdrawal threshold when administered alone.
Animals received 6 injections, each separated by a minimum of 4 days to prevent development of tolerance. The withdrawal threshold to mechanical stimulation with von Frey filaments was determined before and at intervals of […] following intrathecal injection, then again at 20 hours following injection. A dose response was determined using the time of peak effect (2 hr for each compound) and the ED50 determined by linear regression.
The ED50 for the mixture (total of each component combined) was determined by linear regression, an isobologram constructed, and the observed ED50 was compared to the theoretical ED50 by a t-test as previously described in Tallarida, R. J., Statistical analysis of drug combinations for synergism, Pain, 49 (1992) 93-97. In order to determine the site of action of Compound T62, two experiments were performed. […]
Compound T62 was dissolved in 45% […] (RBI, Natick, Mass. ). Drugs were administered intrathecal in a 5 μl volume followed by 10 μl of saline to flush the catheter.
Data are presented as median±25th and 75th percentile (for raw withdrawal thresholds) or by mean±SE. Linear regression was used to calculate the ED50 for each drug alone and for the fixed ratio combination. […]

A1 adenosine receptor [6] = biological target: T3, A1 adenosine receptor (Cavia porcellus, UniProt P47745); details: isolated guinea pig left atrium; cited from earlier work
T3 construct: functional studies conducted in the isolated guinea pig left atrium and isolated ileum; from tissue; host or cells: isolated guinea pig ileum
T3 sequence (P47745 1-326): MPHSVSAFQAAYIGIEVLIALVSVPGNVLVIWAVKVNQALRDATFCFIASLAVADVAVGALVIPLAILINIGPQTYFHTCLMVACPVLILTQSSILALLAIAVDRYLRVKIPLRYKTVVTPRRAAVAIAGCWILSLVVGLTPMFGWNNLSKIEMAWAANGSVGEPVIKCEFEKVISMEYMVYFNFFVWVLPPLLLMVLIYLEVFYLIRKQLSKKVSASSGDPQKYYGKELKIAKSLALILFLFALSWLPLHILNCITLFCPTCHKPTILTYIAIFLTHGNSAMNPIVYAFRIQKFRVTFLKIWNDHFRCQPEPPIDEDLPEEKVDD

A1 adenosine receptor [7] = biological target: T3, A1 adenosine receptor; details: isolated ileum; cited from earlier work
A1 adenosine receptor [8] = biological target: T4, A1 adenosine receptor (Rattus norvegicus, UniProt P25099); details: rat brain, cited from earlier work
T4 construct: from tissue; host or cells: rat brain
T4 sequence (P25099 1-326): T1 sequence (P25099 1-326)

- Irwin test observations (mouse): tremor and tip-toe gait
- enhancer potency compared to PD 81,723 ([3]; CHO:huA1 cells cAMP): more potent enhancer than PD 81,723
- concentration at which enhancement of the CPA induced inhibition of cyclic AMP production began ([3]; CHO:huA1 cells, forskolin 1 μM, CPA, normalized to 10 μM PD 81,723): 10 nM
- motor effect ([5]; intrathecal doses larger than 1-5 μg): obvious motor blockade
SMILES: Nc1sc2c(c1C(=O)c1ccc(Cl)cc1)CCCC2 [Compound T62, (2-Amino-4,5,6,7-tetrahydrobenzo[b]thiophen-3-yl)(4-chlorophenyl)methanone]
- dose sufficient to completely reverse hypersensitivity of the inflamed foot to pre-carrageenan levels ([1]; intrathecal, rats with 2 mg intraplantar carrageenan, n=4): 1 µg
- effect on withdrawal thresholds ([1]; normal rats, intrathecal 0.5 to 40 μg): no significant effect
- EC50 [2]: 15.3 µM
- antagonism of the A1 receptor ([3]; at 10 μM Compound T62): does not antagonize; also recorded: no antagonism
- NUMBER OF WRITHES (5 to 1 5 min after phenylbenzoquinone) mean ± s.e.m. ([4]; 128 mg/kg i.p. −30 minutes): 13.9 ± 3.4
- percent change from control ([4]; 128 mg/kg i.p. −30 minutes): −18%
- NUMBER OF WRITHES (5 to 1 5 min after phenylbenzoquinone) mean ± s.e.m. ([4]; 128 mg/kg i.p. −1 hour): 10.9 ± 2.6
- percent change from control ([4]; 128 mg/kg i.p. −1 hour): −58%
- NUMBER OF WRITHES (5 to 1 5 min after phenylbenzoquinone) mean ± s.e.m. ([4]; 128 mg/kg i.p. −2 hours): 17.3 ± 2.0
- percent change from control ([4]; 128 mg/kg i.p. −2 hours): −38%
- NUMBER OF WRITHES (5 to 1 5 min after phenylbenzoquinone) mean ± s.e.m. ([4]; 128 mg/kg i.p. −4 hours): 13.1 ± 3.5
- percent change from control ([4]; 128 mg/kg i.p. −4 hours): −36%
- NUMBER OF WRITHES (5 to 1 5 min after phenylbenzoquinone) mean ± s.e.m. ([4]; 128 mg/kg i.p. −8 hours): 15.3 ± 4.1
- percent change from control ([4]; 128 mg/kg i.p. −8 hours): +11%
- NUMBER OF WRITHES (5 to 1 5 min after phenylbenzoquinone) mean ± s.e.m. ([4]; 512 mg/kg i.p. −30 minutes): 5.9 ± 2.2
- percent change from control ([4]; 512 mg/kg i.p. −30 minutes): −65%
- NUMBER OF WRITHES (5 to 1 5 min after phenylbenzoquinone) mean ± s.e.m. ([4]; 512 mg/kg i.p. −1 hour): 6.4 ± 1.0
- percent change from control ([4]; 512 mg/kg i.p. −1 hour): −75%
- NUMBER OF WRITHES (5 to 1 5 min after phenylbenzoquinone) mean ± s.e.m. ([4]; 512 mg/kg i.p. −2 hours): 3.5 ± 1.8
- percent change from control ([4]; 512 mg/kg i.p. −2 hours): −87%
- NUMBER OF WRITHES (5 to 1 5 min after phenylbenzoquinone) mean ± s.e.m. ([4]; 512 mg/kg i.p. −4 hours): 4.8 ± 1.5
- percent change from control ([4]; 512 mg/kg i.p. −4 hours): −77%
- NUMBER OF WRITHES (5 to 1 5 min after phenylbenzoquinone) mean ± s.e.m. ([4]; 512 mg/kg i.p. −8 hours): 6.0 ± 1.9
- percent change from control ([4]; 512 mg/kg i.p. −8 hours): −56%
- dose required for efficacy ([4]; intraperitoneal, mice, chemically induced pain): 128 mg/kg
- duration of effect on withdrawal threshold ([5]; IP injection, 15 mg/kg): at least 4 hours
- effect on hypersensitivity ([5]; intraperitoneal injection, 15 mg/kg): effective to reduce hypersensitivity
- dose required for efficacy ([5]; intraperitoneal, rats, neuropathic pain): 15 mg/kg
- effect of intraperitoneal Compound T62 after A1 antagonist ([5]; intrathecal DPCPX (5 μg)): blocked
- duration of effect on withdrawal threshold ([5]; intrathecal injection): over 4 hours
- time of peak effect ([5]; intrathecal injection): 2 h
- dose returning sensitivity (withdrawal threshold) to normal ([5]; intrathecal injection): 5 µg

SMILES: CCOC(=O)N1CCc2c(sc(N)c2C(=O)c2ccccc2)C1 [PD 78,416]
- enhancement of the effect of the agonist CPA (A1 adenosine receptor [6]): enhanced the effect
- enhancement of the effect of the agonist CPA (A1 adenosine receptor [7]): failed to enhance
- enhancement of [3H]CHA binding (A1 adenosine receptor [8]; competition studies): not observed
- effect on dissociation of [3H]CHA binding (A1 adenosine receptor [8]): retards the dissociation

SMILES: Nc1ncnc2c1ncn2[C@@H]1O[C@H](CO)[C@@H](O)[C@H]1O [adenosine, reference compound]
- time of peak effect ([5]; intrathecal injection): 2 h
- dose returning sensitivity (withdrawal threshold) to normal ([5]; intrathecal injection): 30 µg
